From patent publication US10966957B2, “Method of treating cancer with combinations of histone deacetylase inhibitors (HDAC1) substances” (Research Cancer Institute of America, priority 2011, dated 2021)

How the values were obtained:
[1] = tested on: refractory solid tumor malignancies; settings: cited from earlier work
prostate cancer cells = settings: cited from earlier work
patients with cancer = format: in vivo, human; settings: octreotide subcutaneously at 50-400 mcgs
Text: As of October 2011, 40 patient charts were selected randomly and reviewed. The inclusion criteria were diagnosis of cancer. No patients were excluded. Patients were aged 27 to 83 years. All were diagnosed by their oncologist/physician and were offered standard conventional treatment of surgery, traditional chemotherapy or radiation.
The patients were managed based on unique developed protocols that were designed in correlation with available research studies and clinical trials that implicate using specific natural and synthetic IV therapies. IV therapies are targeted at epigenetic level and consist of antioxidants, quercetin, DCA, sodium phenyl butyrate, and lipoic acid separately or in combination. All patients received one or more of such treatments. […] Doses of each treatment remained the same or close on each treatment, Quercetin was given intravenously at the dose 0.5 to 1.0 gram (50 mg/ml).
The progression of disease was measures during the course of treatment through tumor markers, Imaging studies and markers for cancer growth, necrosis, LDH, and inflammation, CRP, as well as the Natural killer cell activity or lymphocyte count and Circulatory tumor cells.

[2] = tested on: MBT-2 bladder transitional cell carcinoma, B16-F10 melanoma and LL/2 Lewis lung carcinoma; settings: depending on concentrations; cited from earlier work
[3] = tested on: cancer deemed no longer treatable by conventional methods; settings: cited from earlier work
tyrosine kinase = settings: measured in 11 subjects; cited from earlier work
acites tumor cells = settings: injected peritoneally; cited from earlier work
[4] = tested on: human squamous cell carcinoma line; settings: injected interperitoneally; minimal effects on surrounding normal cells; cited from earlier work

**Q.** Which results are given for Sodium phenylbutyrate [SPB]?
**A.** Toxicity of oral doses ([1]; oral doses up to 36 grams per day): minimal toxicity; Patients with stable disease for more than 6 months while on the drug ([1]; oral): 25%; Potency relative to phenylacetate (prostate cancer cells): more potent than phenylacetate

**Q.** With Octreotide as the compound, how does the “Lowering of IgF-1 by octreotide in the protocols” value (patients with cancer) read?
**A.** lowering the IgF-1 significantly

**Q.** With O=C(O)CCCCC1CCSS1 (centres unmarked) [Lipoic acid] as the compound, how does the “Reduction of cell number” value [2] read?
**A.** 10-50%

**Q.** With O=c1c(O)c(-c2ccc(O)c(O)c2)oc2cc(O)cc(O)c12 [Quercetin] as the compound, how does the “Dose recommended for phase 2 studies” value ([3]; intravenous) read?
**A.** ≤ 1400 mg/m2

**Q.** What about the “Patients with sustained decreases in unique cancer markers” value ([3]; of 50 patients, metastatic hepatocellular carcinoma and stage 4 metastatic ovarian cancer) of the same compound?
**A.** two

**Q.** What about the “Suppression as defined by the radiological criteria of WHO” value ([3]; up to 1700 mg/m2 intravenous for 3 weeks, 50 patients) of the same compound?
**A.** None of the patients achieved suppression

**Q.** What about the “Subjects with a decrease in tyrosine kinase levels” value (tyrosine kinase) of the same compound?
**A.** 9

**Q.** What about the Increase in lifespan (acites tumor cells) of the same compound?
**A.** 20%

**Q.** What about the “Inhibition of cancer growth” value [4] of the same compound?
**A.** selective inhibition of cancer growth
